The text below walks through data of patent US9145415B2, “Nitrogen-containing heterocyclic compound or salt thereof” (FUJIFILM Corporation, priority 2012, dated 2015).

Molecules are shown by their SMILES. pIC50: −log10 of the molar value. Where two headings read alike, the source gives them in different places.

One test deals with Molm-13 cells. Put plainly: Leukemia cell proliferation inhibition test (ATPlite), Molm-13. Format: cell-based. The note with it: Homo sapiens, read-out: MOLM13 cell proliferation inhibition effect. In short, it runs like this:
(§1)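 Molm-13 or MV4-11 cells in RPMI with 10% FBS and pen/strep, seeded at 10,000 cells per well, were exposed to serially diluted compound for 72 hours at 37° C, 5% CO2. Total cellular ATP was read by luciferase luminescence. GI50 came from sigmoid fits against the 0.1% DMSO control, in duplicate.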
Background: ATP-based viability assays read luminescence as a measure of living cells.

For a further test, the system named is MV4-11 cells. The experiment in a line: Leukemia cell proliferation inhibition test (ATPlite), MV4-11. The note with it: Homo sapiens, read-out: MV4-11 cell proliferation inhibition effect. The test is classed as cell-based. In short, it runs like this: as §1
Test [1] concerns the target T1, human FLT3 protein (FLT3 (WT)) (Homo sapiens, UniProt P36888).
T1 construct: human FLT3 protein (intracellular region, 564 to 993 aa); GST; purchased Carna Biosciences; host or cells: baculovirus expression system
T1 sequence (P36888 564-993): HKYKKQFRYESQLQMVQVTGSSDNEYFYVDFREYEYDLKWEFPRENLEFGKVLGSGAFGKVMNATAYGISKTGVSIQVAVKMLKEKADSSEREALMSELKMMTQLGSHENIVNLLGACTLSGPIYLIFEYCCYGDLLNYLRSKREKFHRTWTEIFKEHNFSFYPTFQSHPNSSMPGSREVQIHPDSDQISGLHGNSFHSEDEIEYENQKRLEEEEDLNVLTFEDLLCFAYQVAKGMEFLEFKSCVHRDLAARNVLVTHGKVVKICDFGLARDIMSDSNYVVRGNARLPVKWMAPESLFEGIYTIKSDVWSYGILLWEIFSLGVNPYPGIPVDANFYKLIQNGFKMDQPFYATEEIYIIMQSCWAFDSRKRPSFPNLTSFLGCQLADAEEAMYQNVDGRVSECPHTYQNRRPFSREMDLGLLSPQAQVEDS
Put plainly: FLT3 inhibition test (FLT3 enzyme inhibition, time-resolved fluorescence of substrate peptide phosphorylation). The test is classed as biochemical. The settings on record: read-out: FLT3 (WT) enzyme inhibition activity. In short, it runs like this: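 Substrate peptide phosphorylation detected by time-resolved fluorescence after a 30 min kinase reaction at 25° C with 50 μM ATP (final). Beforehand, compound and FLT3 (WT, 1.2 μg) stood 15 min at 25° C in HEPES buffer pH 7.5 containing MgCl2, NaCl, BSA and DTT.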

[2] abbreviates: MOLM-13, 72 h, Molm-13, 72 hours culture, ATPlite, GI50 per method.
Setting [3] is: MV4-11, 72 h, MV4-11, 72 hours culture, ATPlite, GI50 per method.
[4] abbreviates: GST-fused human FLT3 (564 to 993 aa), ATP 50 μM.

On to `COc1ccc(Nc2ncc(C#CCCCNC(=O)[C@H](C)N(C)C(=O)/C=C/CN(C)C)c(NCCCF)n2)cc1F` [Compound 7-56, (S,E)-4-(Dimethylamino)-N-(1-((5-(2-((3-fluoro-4-methoxyphenyl)amino)-4-((3-fluoropropyl)amino)pyrimidin-5-yl)-4-pentyn-1-yl)amino)-1-oxopropan-2-yl)-N-methyl-2-butenamide], for which the pIC50 (in the test on Molm-13 cells (setting [2]); with MV4-11 cells (setting [3]); in test [1] (setting [4])) was above 8.00 in each case.
With `C=CC(=O)N(C)[C@@H](C)C(=O)NCCCNC(=O)c1cnc(Nc2ccc(C(N)=O)cc2)nc1NCCC` [Compound 5-3], the pIC50 with Molm-13 cells (setting [2]) is 7.00 to 8.00; in the test with MV4-11 cells (setting [3]), 7.00 to 8.00; in test [1] (setting [4]), above 8.00.
Take `CCCNc1nc(Nc2ccc3[nH]ncc3c2)ncc1C#CCCCNC(=O)[C@@H]1CCCN1C(=O)/C=C/CN(C)C` [Compound 22-62]: the pIC50 is above 8.00 in the test with Molm-13 cells (MOLM-13, MOLM13 cell); above 8.00 in the test with MV4-11 cells (MV4-11, MV4-11 cell); above 8.00 in test [1] (FLT3 (WT)).
Regarding `C[C@@H](C(=O)NCCCC#Cc1cnc(Nc2ccc(F)cc2)nc1N1CCCCC1)N(C)C(=O)/C=C/CN(C)C` [Compound 10-38], the pIC50 with Molm-13 cells (setting [2]) was 7.00 to 8.00; in the test on MV4-11 cells (setting [3]), above 8.00; in test [1] (setting [4]) it was above 8.00.
Take `COCCCNc1nc(Nc2ccc3cn[nH]c3c2)ncc1C#CCCCNC(=O)[C@@H]1CCCN1C(=O)/C=C/CN(C)C` [Compound 10-71]: the pIC50 (with Molm-13 cells (setting [2]); in the test on MV4-11 cells (setting [3]); in test [1] (setting [4])) was above 8.00 in each case.
As to `COCCCNc1nc(Nc2cccc(F)c2)ncc1C#C[C@H]1C[C@@H](NC(=O)[C@H](C)N(C)C(=O)/C=C/CN(C)C)C1` [Compound 15-15, (E)-4-(Dimethylamino)-N—((S)-1-(((1S,3R)-3-((2-((3-fluorophenyl)amino)-4-((3-methoxypropyl)amino)pyrimidin-5-yl)ethynyl)cyclobutyl)amino)-1-oxopropan-2-yl)-N-methyl-2-butenamide], the pIC50 (in the test on Molm-13 cells (setting [2]); in the test with MV4-11 cells (setting [3]); in test [1] (setting [4])) was above 8.00 each time.
For `C[C@@H](C(=O)NCCCC#Cc1cnc(Nc2cccc(F)c2)nc1NCC1CCOCC1)N(C)C(=O)/C=C/CN(C)C` [Compound 10-7], the pIC50 (in the test with Molm-13 cells (setting [2]); in the test on MV4-11 cells (setting [3]); in test [1] (setting [4])) was above 8.00 throughout.
Regarding `C[C@@H](C(=O)N[C@H]1CCC[C@@H](C#Cc2cnc(Nc3cccc(F)c3)nc2NC2CC2)C1)N(C)C(=O)/C=C/CN(C)C` [Compound 21-29], the pIC50 (with Molm-13 cells (setting [2]); in the test with MV4-11 cells (setting [3]); in test [1] (setting [4])) was above 8.00 in each case.
For `CCCNc1nc(Nc2cccc3cn[nH]c23)ncc1C#CCCCNC(=O)[C@H](C)N(C)C(=O)/C=C/CN(C)C` [Compound 21-56], the pIC50 was 6.00 to 7.00 in the test on Molm-13 cells (MOLM-13, MOLM13 cell); 6.00 to 7.00 with MV4-11 cells (MV4-11, MV4-11 cell); 7.00 to 8.00 in test [1] (FLT3 (WT)).
As for `COCCCNc1nc(Nc2ccc(C#N)cc2)ncc1C#C[C@H]1C[C@@H](NC(=O)[C@H](C)N(C)C(=O)/C=C/CN(C)C)C1` [Compound 15-16, (E)-N—((S)-1-(((1S,3R)-3-((2-((4-Cyanophenyl)amino)-4-((3-methoxypropyl)amino)pyrimidin-5-yl)ethynyl)cyclobutyl)amino)-1-oxopropan-2-yl)-4-(dimethylamino)-N-methyl-2-butenamide], the pIC50 (with Molm-13 cells (setting [2]); with MV4-11 cells (setting [3]); in test [1] (setting [4])) was above 8.00 each time.
Turning to `CCCNc1nc(Nc2ccnc(OC)c2)ncc1C#C[C@H]1C[C@@H](NC(=O)[C@H](C)N(C)C(=O)/C=C/CN(C)C)C1` [Compound 14-6, (E)-4-(Dimethylamino)-N—((S)-1-(((1S,3R)-3-((2-((2-methoxypyridin-4-yl)amino)-4-(propylamino)pyrimidin-5-yl)ethynyl)cyclobutyl)amino)-1-oxopropan-2-yl)-N-methyl-2-butenamide], the pIC50 (in the test on Molm-13 cells (setting [2]); in the test with MV4-11 cells (setting [3]); in test [1] (setting [4])) was above 8.00 each time.
In the case of `CCCNc1nc(Nc2ccc(C(N)=O)cc2)ncc1C#CCCCNC1(CNC(=O)/C=C/CN(C)C)CCOCC1` [Compound 8-12], the pIC50 in the test on Molm-13 cells (setting [2]) is 7.00 to 8.00; with MV4-11 cells (setting [3]) it was 7.00 to 8.00; in test [1] (setting [4]) it was above 8.00.
With `CCCNc1nc(Nc2ccc3c(OC)nn(CCOC)c3c2)ncc1C#CCCCNC(=O)[C@@H]1CCCN1C(=O)/C=C/CN(C)C` [Compound 22-55], the pIC50 is above 8.00 in the test with Molm-13 cells (MOLM-13, MOLM13 cell); above 8.00 with MV4-11 cells (MV4-11, MV4-11 cell); above 8.00 in test [1] (FLT3 (WT)).
For the molecule `CCCNc1nc(Nc2cnc3c(c2)c(OC)nn3C)ncc1C#CCCCNC(=O)[C@H](C)N(C)C(=O)/C=C/CN(C)C` [Compound 22-29], the pIC50 in the test with Molm-13 cells (MOLM-13, MOLM13 cell) was above 8.00; in the test on MV4-11 cells (MV4-11, MV4-11 cell), above 8.00; in test [1] (FLT3 (WT)), above 8.00.
As for `COCCNc1nc(Nc2cccc(C#N)c2)ncc1C#C[C@@H]1CCC[C@H](NC(=O)[C@H](C)N(C)C(=O)/C=C/CN(C)C)C1` [Compound 22-38], the pIC50 was above 8.00 in the test on Molm-13 cells (MOLM-13, MOLM13 cell); above 8.00 with MV4-11 cells (MV4-11, MV4-11 cell); above 8.00 in test [1] (FLT3 (WT)).
As for `CN(C)C/C=C/C(=O)N1CCC[C@H]1C(=O)NCCCC#Cc1cnc(Nc2ccc3[nH]ncc3c2)nc1NC1CC1` [Compound 10-74], the pIC50 (with Molm-13 cells (setting [2]); in the test with MV4-11 cells (setting [3]); in test [1] (setting [4])) was above 8.00 each time.
`CCCNc1nc(Nc2cccc(F)c2)ncc1C#CCCCNC(=O)[C@@H]1C[C@@H](F)CN1C(=O)/C=C/CN(C)C` [Compound 7-47]: the pIC50 (in the test with Molm-13 cells (setting [2]); with MV4-11 cells (setting [3]); in test [1] (setting [4])) was above 8.00 each time.
As for `CCCNc1nc(Nc2ccc(C(N)=O)cc2)ncc1C(=O)Nc1cccc(NC(=O)[C@H](C)NC(=O)/C=C/CN(C)C)c1` [Compound 3-12], the pIC50 with Molm-13 cells (setting [2]) is 7.00 to 8.00; in the test with MV4-11 cells (setting [3]) it was 7.00 to 8.00; in test [1] (setting [4]), above 8.00.
Consider `CCCNc1nc(NC)ncc1C#C[C@@H]1CCC[C@H](NC(=O)[C@H](C)N(C)C(=O)/C=C/CN(C)C)C1` [Compound 21-35], for which the pIC50 in the test with Molm-13 cells (MOLM-13, MOLM13 cell) is 7.00 to 8.00; in the test with MV4-11 cells (MV4-11, MV4-11 cell) it was 7.00 to 8.00; in test [1] (FLT3 (WT)), above 8.00.
Consider `CCCNc1nc(Nc2ccc3cnn(CCOC)c3c2)ncc1C#CCCCNC(=O)[C@H](C)N(C)C(=O)/C=C/CN(C)C` [Compound 22-11], for which the pIC50 is above 8.00 in the test on Molm-13 cells (MOLM-13, MOLM13 cell); above 8.00 with MV4-11 cells (MV4-11, MV4-11 cell); above 8.00 in test [1] (FLT3 (WT)).
As to `C[C@@H](C(=O)NCCCC#Cc1cnc(Nc2ccc3cn[nH]c3c2)nc1NC1CC1)N(C)C(=O)/C=C/CN(C)C` [Compound 10-73], the pIC50 (in the test on Molm-13 cells (setting [2]); in the test with MV4-11 cells (setting [3]); in test [1] (setting [4])) was above 8.00 throughout.
As for `CCCNc1nc(Nc2cccc(F)c2)ncc1C#CCCCNC(=O)[C@@H]1C[C@H](F)CN1C(=O)/C=C/CN(C)C` [Compound 7-49], the pIC50 (in the test with Molm-13 cells (setting [2]); with MV4-11 cells (setting [3]); in test [1] (setting [4])) was above 8.00 in each case.
On to `C=CC(=O)N(C)CC(=O)NCCCNC(=O)c1cnc(NC(=O)Nc2ccncc2)nc1NCCC` [Compound 6-12], for which the pIC50 in the test with Molm-13 cells (setting [2]) was 6.00 to 7.00; in the test on MV4-11 cells (setting [3]), 7.00 to 8.00; in test [1] (setting [4]), above 8.00.
With `CCCNc1nc(Nc2ccc(C#N)cc2)ncc1C#C[C@@H]1CCC[C@H](NC(=O)[C@H](C)N(C)C(=O)/C=C/CN(C)C)C1` [Compound 13-4], the pIC50 (with Molm-13 cells (setting [2]); in the test with MV4-11 cells (setting [3]); in test [1] (setting [4])) was above 8.00 throughout.
As to `COCCNc1nc(Nc2ccc(C#N)cc2)ncc1C#C[C@@H]1CCC[C@H](NC(=O)[C@H](C)N(C)C(=O)/C=C/CN(C)C)C1` [Compound 22-39], the pIC50 with Molm-13 cells (MOLM-13, MOLM13 cell) is above 8.00; in the test on MV4-11 cells (MV4-11, MV4-11 cell), above 8.00; in test [1] (FLT3 (WT)), above 8.00.
For the molecule `CCCNc1nc(Nc2cccc(F)c2)ncc1C#CCCCNC(=O)[C@@H]1C[C@H](O)CN1C(=O)/C=C/CN(C)C` [Compound 7-67], the pIC50 (in the test with Molm-13 cells (setting [2]); in the test on MV4-11 cells (setting [3]); in test [1] (setting [4])) was above 8.00 throughout.
For `COCCCNc1nc(Nc2ccc3[nH]ncc3c2)ncc1C#CCCCNC(=O)[C@H](C)N(C)C(=O)/C=C/CN(C)C` [Compound 10-62], the pIC50 (with Molm-13 cells (setting [2]); with MV4-11 cells (setting [3]); in test [1] (setting [4])) was above 8.00 throughout.
Take `CCCNc1nc(Nc2ccccc2)ncc1C#CCCCNC(=O)[C@H](C)N(C)C(=O)/C=C/CN(C)C` [Compound 12-1, (S,E)-4-(dimethylamino)-N-methyl-N-(1-oxo-1-((5-(2-(phenylamino)-4-(propylamino)pyrimidin-5-yl)-4-pentyn-1-yl)amino)propan-2-yl)-2-butenamide]: the pIC50 (in the test with Molm-13 cells (setting [2]); with MV4-11 cells (setting [3]); in test [1] (setting [4])) was above 8.00 throughout.
